Experimental data from PubChem BioAssay (NCI).
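All cell lines were grown in 96-well plates and treated with compound for 48 hours. Here, GI50 denotes the concentration required for 50% inhibition of growth. TGI: total growth inhibition.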

Legend:
Assay in all cases: NCI-60 cell line screen, 48 h
NCI-H226 lung = tested on: NCI-H226 lung
SF-268 CNS = tested on: SF-268 CNS
SK-MEL-28 melanoma = tested on: SK-MEL-28 melanoma
SK-OV-3 ovarian = tested on: SK-OV-3 ovarian
UACC-62 melanoma = tested on: UACC-62 melanoma
ACHN renal = tested on: ACHN renal
HS 578T breast = tested on: HS 578T breast
MDA-MB-231 breast = tested on: MDA-MB-231 breast
MDA-MB-435 = tested on: MDA-MB-435
SR leukemia = tested on: SR leukemia

Compound	TGI (NCI-H226 lung) [µM]	TGI (SF-268 CNS) [µM]	TGI (SK-MEL-28 melanoma) [µM]	TGI (SK-OV-3 ovarian) [µM]	TGI (UACC-62 melanoma) [µM]	TGI (ACHN renal) [µM]	GI50 (ACHN renal) [µM]	GI50 (HS 578T breast) [µM]	TGI (HS 578T breast) [µM]	GI50 (MDA-MB-231 breast) [µM]	TGI (MDA-MB-231 breast) [µM]	GI50 (MDA-MB-435) [µM]	TGI (MDA-MB-435) [µM]	GI50 (NCI-H226 lung) [µM]	GI50 (SF-268 CNS) [µM]	GI50 (SK-MEL-28 melanoma) [µM]	GI50 (SK-OV-3 ovarian) [µM]	GI50 (UACC-62 melanoma) [µM]	TGI (SR leukemia) [µM]
O=C1CCCC(O)=C1SC1=C(O)CCCC1=O	> 100	> 100	> 100	> 100	> 100														
CN1C(=O)CCC1c1ccc2c(c1)oc(=O)n2C (stereo not drawn)	> 100	> 100	> 100	> 100	> 100	> 100													
CC(C)=CC(=O)N[C@@H]1CC2CCC3C(CC[C@@]4(C)C3CC[C@@H]4C(C)N(C)C)[C@@]2(C)C[C@@H]1O (stereo partly drawn)	> 41.4	12.2	3.89	24.6	5.28	32.6	6.36	6.12	25.3	5.77	19.8	2.9	10.1	8.04	2.71	1.91	10.4	2.24	
O=C(Oc1ccc2c(-c3ccccc3)c(C(=O)Nc3ccc(Cl)cc3)c(=O)oc2c1)c1ccccc1	> 100		> 100	> 100	> 100	> 100													
CN(C)c1ccc2cc3ccc(N(C)C)cc3nc2c1	19.9	6.26	16.3	13.9	28.2	3.67			10.7		2.89		13						
Cc1cc(NCc2cc(Nc3ccnc4cc(Cl)ccc34)ccc2F)nc(N2CCSCC2)n1	12.1	5.27		3.64		3.53	1.7	1.77	4.98	1.64	3.63			2.71	1.9		1.82		
NC(CCc1ncc(-c2ccccc2)s1)C(=O)O (stereo not drawn)	> 100		> 100	> 100	> 100	> 100													
COc1ccc2c(c1)C(=O)c1c-2c(N2CCN(C(=O)CNCCN(C)C)CC2)nc2ccccc12	18	6	3.04	27.5	3.69	17.4	4.65	2.67	9.87	1.79	3.61	2.38	4.98	4.11	2.28	1.67	14	2.16	
O=c1ccn(C2(CO)C=C(CO)C(O)C2O)c(=O)[nH]1 (stereo not drawn)	> 25.7	> 25.7	> 25.7	> 25.7	> 25.7	> 25.7													> 25.7
O=C(c1nn(-c2ccc(Cl)cc2)cc1O)n1nc(C(F)(F)F)cc1-c1ccccc1	> 40.7	> 100	> 100	> 100	> 71.1	> 100	2.08	0.556	> 100	> 26.3	> 100	3.38	> 100	2.17	1.8	6.56	2.53	2.12	
